The values below come from patent US20080312201A1, “Reduced Toxicity Methotrexate Formulations and Methods for Using the Same” (priority 2004, published 2008).

One series has as its system mice. Description: Mouse testing: toxic side effects of MTX, liver examination. It counts as in vivo. To be noted: after two weeks of treatment every other day. How it is done:
(§1) The primary aspect is testing in mice for the ability to translate the toxic reducing action of the additive from flies into mice. Methotrexate was administered at a more moderate dose level, repeatedly over a long period of time. All additives tested for reducing the toxic side effects of MTX in mice were successful. That is 100% of the compounds identified in flies as toxic reducing compounds translated this activity into mice, for both chronic and acute applications. One of the signs of chronic liver damage by methotrexate is metabolic weight gain. The treatments were done on older juvenile mice (cohort of six). There weight gain was followed for two weeks with treatments given every other day.
At the end of the experiment, livers were examined.

Another series has as its system Ovarian cancer cell. Kind of series: Human cancer cell assessment. It is filed as cell-based. From the text:
As a quick secondary screen, the additive alone and in combination with the target drug was examined in these human cancer cell lines. The results of TK-336 are shown as a specific example. The compound alone when treated over a wide concentration range had no effects against the cancer cells.

In the next series the test system is fruit flies. Description: Lethal dose (LD) curve in fruit flies. It is filed as in vivo, Drosophila. To be noted: chemical mixed into food and water, 50 wild-type embryos; range tested 0.01 mM to 5 mM. How it is done: The LD curve in fruit flies was generated for methotrexate. The data to generate the curve was obtained by: Mixing a specific concentration of chemical into the food and water supply of the fruit flies, then 50 wild-type embryos are added to the assay. The LD value for this concentration was calculated by 100−(2×(number of alive flies)). The LD curve was generated by repeating this method over a concentration range. For example, the concentration range tested for methotrexate was 0.01 mM to 5 mM. The LD 98 was identified for methotrexate was 0.5 mM. The LD98 was used as a stringent level for identifying additive chemicals that reduce the toxicity. This stringent level of toxicity is key for several reasons: 1) The high toxicity dose turns even mild toxic side effects into significant barriers for the flies to survive. At the LD98 concentration of methotrexate, all of the toxic mechanisms are orders of magnitude above that observed at physiological treatment doses. At the LD98 dose, suppressing any one toxicity side effect will not enable significant survival of the flies. An additive that enables significant survival is more likely able to reduce all toxic side effects of methotrexate.

The nature of series [1]: Mouse testing: weight gain under repeated methotrexate. It is filed as in vivo. To be noted: older juvenile mice, cohort of six; for weight: treatments every other day. The protocol:
as §1

In the case of `CN(Cc1cnc2nc(N)nc(N)c2n1)c1ccc(C(=O)N[C@@H](CCC(=O)O)C(=O)O)cc1` [MTX], in the series with mice, the “appearance of the livers at the end of the experiment” value was “smaller, yellow/orange in color and had almost no veins in the organ”. Moreover, the “vein density in the liver” value in the series on mice was 5 % of the normal density. The Cell survival is on record as 50% in the series with Ovarian cancer cell (15 μg/ml) and 5% with Ovarian cancer cell (30 μg/ml). This compound also displayed an LD98 in the series with fruit flies of 0.5 mM. Also, the values for the weight in series [1] (Day 0), in series [1] (Day 7) and in series [1] (Day 14) were 107, 107 and 110, respectively. In series [1] (over two weeks), the weight gain/week was around 1 % weight gain/week.
